The text below walks through data of publication PMC9241302, “Identification of 2-(4-N,N-Dimethylaminophenyl)-5-methyl-1-phenethyl-1H-benzimidazole targeting HIV-1 CA capsid protein and inhibiting HIV-1 replication in cellulo” (BMC Pharmacology & Toxicology, 2022).

Where two headings read alike, the source gives them in different places.

Series [1] relates to HIV-1 NL4-3 Ba-L. Kind of series: microbe, parasite or virus in culture. It counts as cell-based. The method, then:
Compounds were first dissolved in DMSO to reach a concentration of 20 mM. They were further diluted to a 200 µM working stock and then further diluted to reach a starting concentration of 10 µM in the culture plate. U87-CD4-CCR5 cells were seeded in quadruplicate at 4000 cells/well in a final volume of 100 µL. The next day, 24 µL of the compound was added in serial 1:2 dilutions to the cells. Two hours later, 25 µL of infectious virus (NL4-3 Ba-L) were added to the cells with a TCID50 of 250. AZT at 10 µM was included as an inhibition control. The medium was replenished in the presence of compounds once every 3 to 4 days. The supernatant was collected every 3–4 days and analyzed for virus production by an in-house p24 capture ELISA. IC50 was calculated using “Quest Graph™ IC50 Calculator” (AAT Bioquest, Inc., https://www.aatbio.com/tools/ic50-calculator). Cytotoxicity of the compound was tested on U87-CD4-CCR5 cells in parallel by MTT assay (at the same protocol as in Sect. 3.5 but after 11 days of incubation))[39].

Series [2] is described as follows: Cytotoxicity in murine macrophages (MTT). It is filed as cell-based. The settings on record: mouse, J774.1 murine macrophages; 48 hs. The method, then: (§1) TZM-bl cells, U87-CD4-CCR5, murine macrophages (J774.1), and THP-1 monocytes (ATCC®TIB-202™) were grown following ATCC recommendations. Cells were seeded in a 96-well plate (10^4 cells in 200 µL culture medium) and incubated at 37 °C in a 5% CO2 atmosphere for 48 h, to allow cell adhesion before drug testing. For stimulation (THP-1 monocytes), cells were incubated with 100 nM of phorbol 12-myristate 13-acetate (PMA) for 48 h. […] A vehicle for control (0.4% DMSO) and negative wells (cells in medium) was used in each test. […] After removing the medium, formazan crystals were dissolved in 180 µL of DMSO and 20µL of MTT buffer (0.1 M glycine, 0.1 M NaCl, 0.5 mM EDTA, pH 10.5), and the absorbance at 560 nm was measured. […] Tests were performed in triplicate, in two independent experiments.

A short description of series [3]: Cytotoxicity in U87-CD4-CCR5 cells (MTT). It counts as cell-based. Conditions: human. The method, then:
TZM-bl cells, U87-CD4-CCR5, murine macrophages (J774.1), and THP-1 monocytes (ATCC®TIB-202™) were grown following ATCC recommendations. Cells were seeded in a 96-well plate (10^4 cells in 200 µL culture medium) and incubated at 37 °C in a 5% CO2 atmosphere for 48 h, to allow cell adhesion before drug testing. For stimulation (THP-1 monocytes), cells were incubated with 100 nM of phorbol 12-myristate 13-acetate (PMA) for 48 h. PMA was then washed and cells were left for an additional 24 h, 48 h or11 days (only U87 cells) with growth media containing compound 696 at 10, 25, 50, and 100 µM. A vehicle for control (0.4% DMSO) and negative wells (cells in medium) was used in each test. Cell viability was then assessed by measuring the mitochondria-dependent reduction of MTT (3-(4,5-dimethylthiazol-2-yl)-2,5-diphenyltetrazolium bromide) to formazan. […] After removing the medium, formazan crystals were dissolved in 180 µL of DMSO and 20µL of MTT buffer (0.1 M glycine, 0.1 M NaCl, 0.5 mM EDTA, pH 10.5), and the absorbance at 560 nm was measured. […]
Compounds were first dissolved in DMSO to reach a concentration of 20 mM. […] The supernatant was collected every 3–4 days and analyzed for virus production by an in-house p24 capture ELISA. IC50 was calculated using “Quest Graph™ IC50 Calculator” (AAT Bioquest, Inc., https://www.aatbio.com/tools/ic50-calculator). […]

Series [4] can be described thus: Cytotoxicity in human macrophages (PMA-stimulated THP-1 monocytes, MTT). It counts as cell-based. The settings on record: PMA-stimulated THP-1 monocytes (human macrophages), 48hs. The method, then:
as §1

For series [5], the system named is human red blood cells. Kind of series: Red blood cell lysis assay. Conditions: Erythrocyte, 24hs. It is filed as cell-based. The method, then:
Human blood (blood discarded from the blood bank) collected in sodium citrate solution (3.8%) was centrifuged at 200 × g for 10 min at 4 °C. The plasma supernatant was removed and erythrocytes were suspended in ice-cold PBS. The cells were again centrifuged at 200 × g for 10 min at 4 °C. This procedure was repeated two more times to ensure the removal of any released hemoglobin. Once the supernatant was removed after the last wash, the cells were suspended in PBS to 2% w/v red blood cell solution. […] Ten replicates for each concentration were done and incubated for 24 h at 37 °C before analysis. Complete hemolysis was attained using neat water yielding the 100% control value (positive control). The release of hemoglobin into the supernatant was determined spectrophotometrically at 405 nm using a multiplate reader VarioskanTM Flash Multimode Reader (Thermo Scientific, MA, US). Results are expressed as the percentage of total hemoglobin released in the presence of the compounds. This percentage was calculated using the equation percentage hemolysis (%) = [(A1 − A0)/(Aw)] × 100, where A1 is the absorbance at 405 nm of the test sample at t = 24 h, A0 is the absorbance at 405 nm of the test sample at t = 0 h, and Aw is the absorbance at 405 nm of the positive control (water) at t = 24 h. […] The experiments were done in quintuplicate. AmpB was used as a positive control.

Series [6] deals with HIV-1 reverse transcription (pol viral DNA). Kind of series: qPCR quantification of reverse transcribed viral DNA in U87-CD4-CCR5 cells. The settings on record: 10 µM, cells preincubated, DNA extracted 48 h post-infection. It counts as cell-based. A general note: Real-time PCR tracks product formation cycle by cycle.
Description: U87-CD4-CCR5 cells were plated in a 24-wells plate at 1.25 × 10^5 cells per well. […] Total DNA was extracted 48 h post-infection using the AllPrep DNA/RNA Mini Kit (Qiagen, Venlo, Netherlands). […] The following program was used in the LightCycler 480 Real-Time PCR System (Roche, Basel, Switzerland): pre-incubation: 95 °C for 3 min, pre-amplification: 2 cycles of 95 °C for 15 s and 49 °C for 15 s, amplification: 40 cycles of 95 °C for 10 s, 58 °C for 20 s, 72 °C for 30 s, melting curve stage: 95 °C for 5 s, 55 °C for 1 min and then 97 °C with acquisition every 10 °C, cooling stage: 40 °C for 10 s. Serial dilution of the 8E5 cell line which contains 1 copy of HIV-1 proviral DNA per cell was used as a standard curve for viral RT products [46]. […] Results were calculated as the number of copies of Pol per copy of β-actin. Statistical analysis was performed using an unpaired, two-tailed, Mann–Whitney test with GraphPad Prism 7.0 software. Tests were performed in quadruplicate, in two independent experiments.
The nature of series [7]: Liver fraction stability (thin-layer chromatography). It counts as in vitro ADME, rat. The method, then:
For the determination of liver fraction stability, rat liver microsomal and cytosolic proteins were used (MOLTOX™ manufactures products, North Carolina, US). Rat liver microsomal and cytosolic proteins were used according to the manufacturer’s recommendations and the methodology previously described. […] The final concentration of 696 in the aqueous medium was 100 µM and was prepared from a stock solution in DMSO. The solutions were further homogenized and incubated at 37 °C for 1 to 4 h following the OECD recommendation for drug development. After that, thin-layer chromatography of ethyl acetate extracts was performed to evaluate the presence of metabolites.

A word on the IC50: it is the concentration that gives 50% inhibition. One may read the EC50 as the concentration needed to bring the measured effect to its halfway point. High values mean weaker potency, low ones greater potency. For the compound `Cc1ccc2c(c1)nc(-c1ccc(N(C)C)cc1)n2CCc1ccccc1` [compound 696, 2-(4-N,N-dimethylaminophenyl)-5-methyl-1-phenethyl-1H-benzimidazole], the EC50/IC50 in series [1] was over 21. The concentration for half-maximal inhibition (IC50) in series [1] (Human immunodeficiency virus 1, U87/CD4/CCR5, 264 h, read-out: IC50, inhibition of HIV-1 replication) is 3 µM; in series [1] (Human immunodeficiency virus 1, U87/CD4/CCR5, read-out: IC50 in U87 (μM)), 2.3 ± 0.6 µM. Moreover, the “inhibition of HIV-1 replication (in words)” value in series [1] (U87-CD4-CCR5 cells, serial 1:2 dilutions from 10 µM) was “clear dose–response inhibition”. In addition, the “inhibition of HIV-1 replication” value in series [1] (U87-CD4-CCR5 cells, two highest concentrations tested, after 11 days) is “more than 80%”. In addition, the “selective activity between mammalian cells and antiviral activity” value in series [1] (cytotoxicity EC50 vs antiviral IC50) is on record as “at least 10 times”. Besides, the EC50 at 48 h in series [2] was over 50 µM; in series [4], over 100 µM. In series [3], this compound yielded an EC50 at 11 days of over 50 µM. In series [5], this compound showed a 50% effective concentration (EC50) of over 100 µM. In addition, the “inhibition of HIV-1 reverse transcription (pol viral DNA by qPCR)” value in series [6] was “did not show any significant effect”. The “metabolic stability (in words)” value in series [7] is “high metabolic stability”. For the same compound, the “stability under microsomal and cytosolic fraction derived from rat liver” value in series [7] (100 µM, 37 °C, TLC, absence of new metabolites) is “stable for 4 h”. In series [7] (rat, rat liver microsomes, read-out: Metabolic stability, half-life (t1/2)), the half-life at 100 µM was over 4 h.
